# Experimental data from paper PMC5244364 (2017).
# Key:
# [1] = tested on: VEGFA (DNA, G4) GGGGGCGGGCCGGGGGCGGGGTCCCGGCGGGGCGGAG; assay: ITC; details: 100 mM KCl, K+ phosphate; 10 mM potassium phosphate pH 7.0, 25 °C; 100 µM DNA injected into 10 µM compound; one set of sites
# [2] = tested on: BCL2 (DNA, G4) CGGGCGCGGGAGGAATTGGGCGGGAGC; assay: ITC; details: 100 mM KCl, K+ phosphate; 10 mM potassium phosphate pH 7.0, 25 °C; 100 µM DNA injected into 10 µM compound; one set of sites
# [3] = tested on: KRAS (DNA, G4) GGGAGGGAGGGAAGGAGGGAGGGAGGGA; assay: ITC; details: 100 mM KCl, K+ phosphate; 10 mM potassium phosphate pH 7.0, 25 °C; 100 µM DNA injected into 10 µM compound; one set of sites
# [4] = tested on: GC rich duplex DNA (DNA, duplex) AGGGTGGGGAGGGT/ACCCTCCCCACCCT; assay: ITC; details: 100 mM KCl, K+ phosphate; 10 mM potassium phosphate pH 7.0, 25 °C; 100 µM duplex injected into 10 µM compound
# [5] = tested on: VEGFA (DNA, G4) GGGGGCGGGCCGGGGGCGGGGTCCCGGCGGGGCGGAG; assay: CD melting; details: 100 mM KCl, K+ phosphate; 10 mM potassium phosphate pH 7.0; 1:2 DNA:compound (10 µM DNA in CD titration); Tm free 67.3
# [6] = tested on: BCL2 (DNA, G4) CGGGCGCGGGAGGAATTGGGCGGGAGC; assay: CD melting; details: 100 mM KCl, K+ phosphate; 10 mM potassium phosphate pH 7.0; 1:2 DNA:compound (10 µM DNA in CD titration); Tm free 57.1
# [7] = tested on: KRAS (DNA, G4) GGGAGGGAGGGAAGGAGGGAGGGAGGGA; assay: CD melting; details: 100 mM KCl, K+ phosphate; 10 mM potassium phosphate pH 7.0; 1:2 DNA:compound (10 µM DNA in CD titration); Tm free 67.5
# [8] = tested on: GC rich duplex DNA (DNA, duplex) AGGGTGGGGAGGGT/ACCCTCCCCACCCT; assay: UV absorption titration; details: 100 mM KCl, K+ phosphate; 10 mM potassium phosphate pH 7.0; 10 µM compound, 0–20 µM duplex; quadruplex affinity 4–16 fold higher
# [9] = tested on: VEGFA (DNA, G4) GGGGGCGGGCCGGGGGCGGGGTCCCGGCGGGGCGGAG; assay: UV absorption titration (316 nm); details: 100 mM KCl, K+ phosphate; 10 mM potassium phosphate pH 7.0; 10 µM compound titrated with 0–20 µM DNA; one-site fit
# [10] = tested on: BCL2 (DNA, G4) CGGGCGCGGGAGGAATTGGGCGGGAGC; assay: UV absorption titration (316 nm); details: 100 mM KCl, K+ phosphate; 10 mM potassium phosphate pH 7.0; 10 µM compound titrated with 0–20 µM DNA; one-site fit
# [11] = tested on: KRAS (DNA, G4) GGGAGGGAGGGAAGGAGGGAGGGAGGGA; assay: UV absorption titration (316 nm); details: 100 mM KCl, K+ phosphate; 10 mM potassium phosphate pH 7.0; 10 µM compound titrated with 0–20 µM DNA; one-site fit
# [12] = tested on: VEGFA (DNA, G4) GGGGGCGGGCCGGGGGCGGGGTCCCGGCGGGGCGGAG; assay: fluorescence anisotropy of compound; details: 100 mM KCl, K+ phosphate; 10 mM potassium phosphate pH 7.0; 10 µM compound titrated with DNA
# [13] = tested on: BCL2 (DNA, G4) CGGGCGCGGGAGGAATTGGGCGGGAGC; assay: fluorescence anisotropy of compound; details: 100 mM KCl, K+ phosphate; 10 mM potassium phosphate pH 7.0; 10 µM compound titrated with DNA
# [14] = tested on: KRAS (DNA, G4) GGGAGGGAGGGAAGGAGGGAGGGAGGGA; assay: fluorescence anisotropy of compound; details: 100 mM KCl, K+ phosphate; 10 mM potassium phosphate pH 7.0; 10 µM compound titrated with DNA
# [15] = tested on: GC rich duplex DNA (DNA, duplex) AGGGTGGGGAGGGT/ACCCTCCCCACCCT; assay: fluorescence anisotropy of compound; details: 100 mM KCl, K+ phosphate; 10 mM potassium phosphate pH 7.0; 10 µM compound, 0–20 µM duplex
# [16] = tested on: VEGFA (DNA, G4) GGGGGCGGGCCGGGGGCGGGGTCCCGGCGGGGCGGAG; assay: ethidium bromide displacement, fluorescence; details: 100 mM KCl, K+ phosphate; 10 mM potassium phosphate pH 7.0; 5 µM ethidium bromide displaced, 10 µM DNA
# [17] = tested on: BCL2 (DNA, G4) CGGGCGCGGGAGGAATTGGGCGGGAGC; assay: ethidium bromide displacement, fluorescence; details: 100 mM KCl, K+ phosphate; 10 mM potassium phosphate pH 7.0; 5 µM ethidium bromide displaced, 10 µM DNA
# [18] = tested on: KRAS (DNA, G4) GGGAGGGAGGGAAGGAGGGAGGGAGGGA; assay: ethidium bromide displacement, fluorescence; details: 100 mM KCl, K+ phosphate; 10 mM potassium phosphate pH 7.0; 5 µM ethidium bromide displaced, 10 µM DNA
compound,measurement,setting,value
COc1ccc2c(c[n+](C)c3c4cc5c(cc4ccc23)OCO5)c1OC,KD,[1],0.98 µM
same,KD,[2],0.6 µM
same,KD,[3],0.87 µM
same,KD,[4],4.33 µM
same,∆Tm,[5],3.3 °C
same,∆Tm,[6],16.2 °C
same,∆Tm,[7],4.6 °C
same,KD,[8],8.33 ± 0.4 µM
same,KD,[9],0.51 ± 0.3 µM
same,KD,[10],1.92 ± 0.7 µM
same,KD,[11],0.72 ± 0.2 µM
same,KD,[12],0.25 µM
same,KD,[13],3.2 µM
same,KD,[14],1.5 µM
same,KD,[15],6.14 ± 2.0 µM
same,binding,[16],yes
same,binding,[17],yes
same,binding,[18],yes
